Experimental data: patent publication US6635242B2, “Broad spectrum microbicidal and spermicidal compositions, devices, and methods” (The Pennsylvania State University, priority 1998, dated 2003)

Experiments:
[1] = system: BPV-1; assay: BPV-1 focus assay in C127 mouse cells; type: cell-based, bovine papillomavirus; conditions: bovine papillomavirus
Experimental: Cell-free stocks of BPV-1 were prepared by extraction (10% w/v) of epidermal bovine warts in phosphate buffered saline (PBS). In order to detect the transforming ability of BPV-1, C127 mouse cells were seeded (3×10^5 cells per flask) into T-25^2 flasks. After 24 hr of growth, subconfluent cells were infected with BPV-1. For the positive controls, stock virus (20 μl) was diluted (1:1) with PBS, incubated at 37° C. for 10 min, diluted […] and then added (100 μl ) into the 5 ml of cell culture medium present on the cells. Cells were refed at 24 hours and subsequently 2 times weekly. The presence of morphologically transformed foci was counted after 2 weeks and then again at 3 weeks.
Virus inactivations were carried out in vitro by addition of concentrated SDS solutions to the virus stocks (20 μl of virus plus 20 μl of detergent) and subsequent incubation at 37° C. for 10 or 30 min as indicated. Following inactivation, virus was diluted 1000 fold to lower the detergent concentration and the preparations were immediately used for infection as above.
Although SDS could effectively reduce HSV-2 infectivity, it remained possible that this destruction was mediated by envelope removal. Because papillomaviruses are non-enveloped, the possibility remained that SDS would fail to inactivate these viruses. We utilized BPV-1 as a prototype PV because of its ability to rapidly (within 2 weeks) form multi-layered transformed foci in mouse fibroblasts in an in vitro assay. Table 3 describes results of two separate experiments in which stocks of BPV-1 were incubated at 37° C. with various concentrations of SDS (5% to 5×10^−4%) for either 10 or 30 minutes, diluted to lower the SDS concentration (to avoid cell toxicity) and then used to infect C127 cells. […] Table 4 lists several other commercially available detergents that were tested for possible inactivation of BPV-1. None of these detergents inactivated the morphologic transforming properties of the BPV-1.

[2] = system: HIV-1-infected SupT1 cells; assay: Cell-associated HIV-1 infectivity (FIG. 6); type: cell-based, human immunodeficiency virus; conditions: 10 min at 37° C., co-culture with HCLB cells, FIG. 6(a)
Experimental: (A) SupT1 T lymphocytes (8×10^4)infected 5 days prior with HIV-1 strain IIIB were pelleted and resuspended in new media to remove cell-free virus. After exposure to selected concentrations of each microbicide for 10 min at 37° C., the cells were diluted 1:10 and co-cultured with HCLB cells for 2 h. Following one wash with PBS to remove the infected lymphocytes, the indicator cells were cultured and assayed. Infectivity following exposure is expressed as a percentage relative to the number of β-gal-positive cells in duplicate wells infected with HIV-1 infected SupT1 cells incubated in the absence of a microbicidal compound. Results shown in FIG. 6(a) are the average cell counts for a total of four wells per concentration in two independent experiments. (B) SupT1 T lymphocytes (8×10^4) were incubated with selected concentrations of each microbicide for 10 min at 37° C., and then diluted 1:10 with new media. Following a 2 h incubation period, the cells were assessed for viability. Cell survival after treatment is expressed as the fraction of viable cells relative to the number of mock-exposed cells. Results shown in FIG. 6(b) are the average of two experiments in which triplicate wells for each concentration were assayed.

[3] = system: Bovine sperm; assay: Bovine sperm motility following detergent addition; type: cell-based; set-up: key to Bovine Sperm Motility Following Detergent Addition: +++: Vigorous swimming; ++/−: Many swimmers/some dead; +/−: Occasional swimmer/most dead; −: All dead
Excerpt: The following data represent an in vitro experiment to test the efficacy of SDS and other detergents as spermicidal agents. Frozen samples of bull semen were obtained, thawed and placed in a test tube. Aliquots were taken out and put in a separate test tube where they were mixed with detergent (SDS, C31G, N-9 or a mixture of SDS and N-9) to a final percent as listed in Tables 8 and 9 below. After mixing, the samples were immediately placed on a microscope slide and visually examined for sperm movement. The experiment was conducted one sample at a time so that the visual examination was conducted immediately after addition of detergent to the sample. As a result, indications in the table of complete inactivation indicate virtually instantaneous inactivation of the sperm. […] Occasional swimmers means very few, on the order of approximately 1% of the population of sperm present in the sample, indicating approximately 99% of the sperm were inactivated by the detergent.

[4] = system: CRPV; type: in vivo, cottontail rabbit papillomavirus; conditions: 10^−2 dilution of CRPV stock, 0.05% N-9, 37° C. 10 min; 10 sites each, 3-6 weeks
[5] = system: lymphocyte-, macrophage- and dual-tropic strains of HIV-1 (IIIB, BaL, 89.6); assay: Cell-free HIV-1 inactivation (FIG. 5); type: cell-based, human immunodeficiency virus; conditions: HCLB or P4-R5 indicator cells
Experimental: Cell-free HIV-1 strain IIIB (A) was treated with N-9, C31G, or SDS, and used to infect HCLB cells. Cell-free HIV-1 strains BaL (M tropic) (B) and 89.6 (dual tropic) (C) were treated with N-9, C31G or SDS,and used to infect P4-R5 cells. Assays were conducted. Infectivity following exposure is expressed as a percentage relative to the number of β-gal-positive cells in duplicate wells infected with virus incubated in the absence of a microbicidal compound. Results shown in FIG. 5 are the average cell counts for a total of four wells per concentration in two independent experiments.

## CCCCCCCCCCCCOS(=O)(=O)[O-].[Li+] [LDS, lithium dodecyl sulfate]
[1]
  anti-papillomavirus activity in the C127 focus assay: have anti-papillomavirus activity

## CCCCCCCCCCCC(=O)[O-].[Na+] [NA+ Lauric Acid, sodium salt of lauric acid]
[1]
  anti-papillomavirus activity in the C127 focus assay: have anti-papillomavirus activity

## CCCCCCCCCCCC(=O)O [Lauric Acid, lauric acid]
[1]
  anti-papillomavirus activity in the C127 focus assay: have anti-papillomavirus activity

## Nonoxynol-9 [N-9, reference compound]
[2]
  cell-associated infectivity of HIV-1-infected SupT1 cells: can reduce the cell-associated infectivity
[3]; Table 8, 0.0125% detergent
  Bovine Sperm Motility Following Detergent Addition: +++
[3]; Table 8, 0.025% detergent
  Bovine Sperm Motility Following Detergent Addition: −
[3]; Table 8, 0.5% detergent
  Bovine Sperm Motility Following Detergent Addition: −
[3]; Table 8, 1% detergent
  Bovine Sperm Motility Following Detergent Addition: −
[3]; Table 8, 2% detergent
  Bovine Sperm Motility Following Detergent Addition: −
[3]; Table 9, 0.125% detergent
  Bovine Sperm Motility Following Detergent Addition: +++
[3]; Table 9, 0.25% detergent
  Bovine Sperm Motility Following Detergent Addition: +++
[3]; Table 9, 0.5% detergent
  Bovine Sperm Motility Following Detergent Addition: +++
[3]; Table 9, 1% detergent
  Bovine Sperm Motility Following Detergent Addition: ++/−
[3]; Table 9, 2% detergent
  Bovine Sperm Motility Following Detergent Addition: −
[4]
  growth of papillomas (GMD) from treated versus normal CRPV (FIG. 2b): not a difference in the growth of the lesions
[5]
  inactivation of cell-free HIV-1 strains IIIB, BaL and 89.6 (infectivity, β-gal-positive cells): inactivated
